Laboratory results from PubChem BioAssay AID1419 (Emory University Molecular Libraries Screening Center, 2008).
Activity calls are given as the source filed them. No rule for the calls is given here.

Assay: blockers of an Epstein-Barr virus protein-peptide interaction – biochemical, fluorescence polarization, dose response (AID 1419)
Conditions: cell-free protein-peptide binding, 2 h; for fold change: measured here: P channel fold over control, at 54 µM

| SMILES | IC50 | fold change |
| --- | --- | --- |
| CCOCCCNc1nc2c(C)cccn2c(=O)c1/C=C1\SC(=S)N(CC(C)C)C1=O | > 54 µM (inactive) | 1.58 |
| CCOc1ccc(-c2nn(-c3ccccc3)cc2/C=C2\SC(=S)N(C3CCS(=O)(=O)C3)C2=O)cc1 (stereo not drawn) | 2.12 µM | 10.9 |
| CCN(CC)S(=O)(=O)c1ccc(C(=O)OCCN2C(=O)c3cccc4c(N5CCOCC5)ccc(c34)C2=O)cc1 | 1.53 µM | 111 |
| CN1CCN(C2=Nc3c(Cl)cc(Cl)c4cccc2c34)CC1 | 9.23 µM | 3.09 |
| COc1cccc(Nc2ncccc2C(=O)NCc2ccccc2)c1 | 2.59 µM | 3.14 |
| O=C(Nc1nccs1)C(c1ccccc1)N1CCCC1 (stereo not drawn) | > 54 µM (inactive) | 1.04 |
| COc1ccc(OC)c(/C=C2\SC(=S)N(Cc3cccnc3)C2=O)c1 | 6.71 µM | 5.16 |
| C=CCn1c(O)c(N=Nc2ccccc2C)c2ccccc21 | 14.9 µM | 12.4 |
| O=C1CCNc2c(Cl)cc(Cl)cc21 | 11.1 µM | 2.51 |
| COc1ccccc1NC(=O)/C(C#N)=C/c1cc([N+](=O)[O-])ccc1N1CCCC1 | 4.7 µM | 60.1 |
| COc1ccc2nc(N3CCCC(O)C3)c(C#N)cc2c1 (stereo not drawn) | 14.6 µM | 2.78 |
| Cc1cc(-c2ccc(N3CCOCC3)cc2)nc2ccccc12 | – | 2.8 |
| CN1C(=O)N(C)c2ccc(C=O)c3cccc1c23 | 4.91 µM | 2.37 |
| COc1ccc2nc(N3CCCC3)c(C#N)cc2c1 | < 0.42 µM | 16.7 |
| COC(=O)[C@@]1(C#N)[C@@H]2C=CC(C(C)=O)=CN2[C@@H](C(N)=O)[C@@H]1c1ccc(F)cc1 | 1.05 µM | 10.2 |
| COc1cc(C=C2C(=O)c3ccccc3C2=O)cc(OC)c1OC | > 54 µM (inactive) | 1.06 |
| CCOc1cc(/C=N/NC(=O)c2ccc(-c3csc(Nc4ccc(C)cc4)n3)cc2)ccc1OCC(=O)O | 14.8 µM | 1.08 |
| CCCCn1c(N)c(NCCC(C)C)c(=O)[nH]c1=O | 24.4 µM | 1.91 |
| N#Cc1cccc(NC(=O)CSc2ccc3c4c(cccc24)C(=O)c2ccccc2-3)c1 | 5.72 µM | 3.94 |
| Nc1ccc2c3c(cccc13)C(=O)N(c1ccccc1)C2=O | < 0.42 µM | 200 |
| O=C(NNC1=Nc2cccc3cccc1c23)c1ccc(Br)cc1 | > 54 µM (inactive) | 3.27 |

| SMILES | IC50 | fold change |
| --- | --- | --- |
| O=c1nc2s/c(=C\c3ccc(-c4ccccc4[N+](=O)[O-])o3)c(=O)n2nc1-c1ccccc1 | < 0.42 µM | 9.05 |
| Cn1c(=O)c(NC2CCCCC2)c2c3c(cccc31)C(=O)c1ccccc1-2 | 0.88 µM | 34.7 |
| CCOC(=O)[C@@]1(C#N)C(c2ccc(Cl)c(Cl)c2)[C@H](C(N)=O)N2C=C(C(C)=O)C=C[C@H]21 (stereo partly drawn) | 1.41 µM | 9.48 |
| Cc1cc2nc3c(=O)n(Cc4ccccc4)c(=O)[nH]c3nc2cc1N | < 0.42 µM | 87.1 |
| Nc1ccc(-c2nc3ccc(C(=O)O)cc3s2)cc1 | > 54 µM (inactive) | 1 |
| Cc1ccc[n+](-c2[nH]c(=O)sc2/C=N/NC(=O)c2ccccc2[O-])c1 | 34.2 µM (inactive) | 1.69 |
| Cc1ccc(-c2noc(CCC(=O)N3CCCC3)n2)cc1 | > 54 µM (inactive) | 1.01 |
| O=C(N=Nc1c(O)[nH]c2ccccc12)c1cc(-c2ccc(F)cc2)n[nH]1 | > 54 µM (inactive) | 0.81 |
| Cn1c(=O)c2[nH]c(-c3ccccc3Cl)c(O)c2n(C)c1=O | 1.99 µM | 2.61 |
| O=C(NCCCO)Nc1ccc2nc(-c3ccco3)c(-c3ccco3)nc2c1 | 4.06 µM | 5.99 |
| O=C(CSc1n[nH]c(=O)[nH]c1=O)Nc1ccc2c(c1)C(=O)c1ccccc1C2=O | 9.26 µM | 1.21 |
| Cc1c(N=C2N=C(NC(=O)c3ccc(F)cc3)c3ccccc32)c(=O)n(-c2ccccc2)n1C | 6.56 µM | 6.09 |
| CCOC(=O)Cn1c(=O)c(-c2cc(Br)ccc2N)nc2ccccc21 | > 54 µM (inactive) | 6.44 |
| N#C/C(=C\C1=C(N2CCOCC2)C(=C/c2cccc([N+](=O)[O-])c2)/CC1)C(=O)Nc1ccccc1F | 3.64 µM | 2.26 |
| CN1CCCc2cc3c(C(F)(F)F)cc(=O)oc3nc21 | < 0.42 µM | 18.4 |
| O=c1nc2c(O)cccn2c2c1c(=O)[nH]c1ccccc12 | < 0.42 µM | 7.35 |
| Cn1nc(-c2ccc(Cl)cc2)nc2c(=O)n(C)c(=O)nc1-2 | 7.16 µM | 3.19 |
| COCCCNC(=O)c1ccc2c3c(onc13)-c1ccccc1C2=O | < 0.42 µM | 217 |
| O=C(Nc1nnc(-c2ccccc2Cl)o1)c1cc2cc([N+](=O)[O-])ccc2s1 | > 54 µM (inactive) | 1.09 |
| CCN1CC=C2C(C#N)=C(N)C(C#N)(C#N)[C@H](c3ccoc3)[C@H]2C1 | 7.47 µM | 3.84 |
| COc1cc(/C=C2\SC(=O)N(Cc3ccc(F)cc3)C2=O)cc([N+](=O)[O-])c1O | > 54 µM (inactive) | 0.843 |

| SMILES | IC50 | fold change |
| --- | --- | --- |
| CCOC(=O)C(=O)/C(=C\N(C)C)c1onc(-c2ccccc2)c1C(=O)OC | > 54 µM (inactive) | 1.05 |
| COC(=O)c1cc(NC(=O)c2cccc(Cl)c2)c(=O)oc1/C=C/Nc1cc(C)cc(C)c1 | 4.37 µM | 22.8 |
| COc1ccc(N/C=C2\C(=O)CCc3c2oc2cc(Cl)c(O)c(Cl)c32)cc1 | > 54 µM (inactive) | 11.2 |
| c1ccc2c(c1)CCCN2Cc1nnnn1CC1CCCO1 (stereo not drawn) | 4.98 µM | 2.55 |
| CCCCCn1nc(-c2ccccc2)c2nc3ccccc3nc21 | 2.92 µM | 33.5 |
| Nc1cc2nsnc2cc1Br | 28.6 µM | 1.84 |
| NC(=S)n1[nH]c(-c2ccc([N+](=O)[O-])cc2)c(N=Nc2cccc(Cl)c2)c1=O | 3.74 µM | 1.19 |
| Nc1ccc2nonc2c1[N+](=O)[O-] | < 0.42 µM | 41 |
| O=C(NC1CC1)c1cc(-c2ccco2)nc2ccccc12 | 3.96 µM | 1.06 |
| CN(C)CCCN1C(=O)c2cccc3c(Br)ccc(c23)C1=O | 7.44 µM | 3.2 |
| O=C(Cc1nc2ccccc2[nH]c1=O)c1ccccc1 | 9.54 µM | 5.07 |
| Cc1cc(NC(=O)Cc2cccs2)no1 | 16.9 µM | 1.09 |
| Cc1ccc(-c2cc(-c3ccco3)c(C#N)c(=O)[nH]2)cc1 | > 54 µM (inactive) | 1.46 |
| Cc1ccc(C2=N/C(=C\c3c(C)nn(-c4ccccc4)c3N3CCCC3)C(=O)O2)cc1 | 5.71 µM | 6.13 |
| CCn1c(CSc2nnc3ccccn23)nc2cc(C(=O)O)ccc21 | 4.04 µM | 1.93 |
| CCOC(=O)c1c(/N=C/c2c(O)n(-c3ccc(F)cc3)c(=S)[nH]c2=O)sc2c1CCCC2 | 22.8 µM | 3.7 |
| COC(=O)C[n+]1cccc2ccccc21 | 1.59 µM | 14.8 |
| CCN(CC)c1ccc2cc(C(=O)NNC(=O)c3ccc(S(=O)(=O)N4CCCCC4)cc3)c(=O)oc2c1 | 3.01 µM | 87.1 |
| CC(C)(C)NC(=O)c1sccc1C(=O)O | > 54 µM (inactive) | 1.06 |
| O=C(N/N=C/c1ccc(F)cc1)c1cc(-c2ccco2)nc2ccccc12 | 3.56 µM | 0.96 |
| CN(C)c1ccc(/C=C2\CCC/C(=C\c3ccccc3)C2=O)cc1 | 14.5 µM | 10.6 |

| SMILES | IC50 | fold change |
| --- | --- | --- |
| Cc1c(N2C(=O)c3ccc4c5c(ccc(c35)C2=O)CC4)c(=O)n(-c2ccccc2)n1C | > 54 µM (inactive) | 1.19 |
| NC(=S)n1[nH]c(-c2ccc([N+](=O)[O-])cc2)c(N=Nc2cccc([N+](=O)[O-])c2)c1=O | 3.71 µM | 1.14 |
| CCN(CC)c1ccc(/C=C(/C#N)c2nc3ccccc3[nH]2)c(OC(C)C)c1 | 10.7 µM | 14.3 |
| Cc1cc(-c2ccccc2)c(C#N)c(=S)[nH]1 | > 54 µM (inactive) | 1.04 |
| COc1ccc2ccccc2c1C(O)c1nccn1C (stereo not drawn) | 2.72 µM | 5.13 |
| CC1CCCN(c2nc3ccccc3nc2C(C#N)S(=O)(=O)c2ccccc2)C1 (stereo not drawn) | > 54 µM (inactive) | 1.37 |
| Cc1ccccc1NC(=O)CSc1ccsc1[N+](=O)[O-] | 15.2 µM | 1.04 |
| CCN(CC)c1ccc2cc(S(=O)(=O)c3ccc(C)cc3)c(=O)oc2c1 | 6.25 µM | 36.6 |
| O=C(C1=C(O)C(=O)N(c2nccs2)C1c1ccccc1)c1cc2ccccc2o1 (stereo not drawn) | < 0.42 µM | 161 |
| CCCCCn1c(N)c(-c2nc3ccccc3o2)c2c([N+](=O)[O-])nn(C)c(=O)c21 | 48.1 µM (inactive) | 0.443 |
| Cc1cccc(N2C(=O)c3cccc4c(N(C)CCO)ccc(c34)C2=O)c1 | < 0.42 µM | 34.9 |
| COc1cc(/C=C2/C(=O)c3cccc([N+](=O)[O-])c3C2=O)c(Br)cc1O | > 54 µM (inactive) | 0.647 |
| N=C1S/C(=C\c2ccc(-c3cccc(Cl)c3)o2)C(=O)N1c1nccs1 | 5.78 µM | 2 |
| O=C(N=Nc1ccc(NOC(=O)c2ccccc2Br)cc1)c1ccccc1O | > 54 µM (inactive) | 0.957 |
| COC(=O)c1cc2c(-c3ccccc3)cc3ccccn3c-2c1C(=O)OC | 27 µM | 1.65 |
| COc1ccc(-c2csc(NC(=O)CSc3nc(C)nc4sc(C(=O)O)c(C)c34)n2)cc1 | > 54 µM (inactive) | 0.987 |
| NC(=O)c1c(NC(=O)Cn2nc(C(=O)O)c3ccccc3c2=O)sc2c1CCCC2 | > 54 µM (inactive) | 1.01 |
| N#CC(C#N)=Cc1ccc(-c2ccccc2F)o1 | 5.06 µM | 18.8 |
| O=C(Nc1cccc(Cl)c1)c1cc(N=Nc2ccc([N+](=O)[O-])cc2Cl)ccc1O | 17.7 µM | 0.99 |
